Bounds are passed on as bounds.

Sequence of Nonstructural protein 3 (A0A024AXB9 whole entry): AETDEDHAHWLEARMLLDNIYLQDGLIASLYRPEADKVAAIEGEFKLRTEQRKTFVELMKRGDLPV

The assay has as its target Nonstructural protein 3 (Zika virus, UniProt A0A024AXB9). The assay is described as follows: Functional biochemical assay to identify treatments for viral infectious disease that targets Zika NS2B-NS3 protease. Utilizing a direct enzyme activity measurement method, reading the fluorescence intensity is used to characterize the relative potency of inhibitors as IC50. Also on record: species or system PRVABC59.
Regarding `NCCCc1cccc(NC(=O)c2cc(Cl)cc(NC(=O)OCc3ccccc3)c2)n1`, the half-inhibitory concentration (IC50) amounted to 19 µM.
The figure for `NCc1cccc(NC(=O)c2cc(NC(=O)OCc3ccccc3)ccc2C(F)(F)F)c1` is greater than 99.5 µM; for `N#Cc1csc(CN2CCC([C@H](NC(=O)OCc3ccccc3)C(=O)Nc3cccc(CN)c3)CC2)c1` it is greater than 99.5 µM.
Under `NCc1cccc(NC(=O)[C@H](NC(=O)OCc2ccccc2)C2CCN(C(=O)[C@H]3C[C@H](O)C3)CC2)c1` stands greater than 99.5 µM; under `N#CC1(S(=O)(=O)N2CCC([C@H](NC(=O)OCc3ccccc3)C(=O)Nc3cccc(CN)c3)CC2)CCC1`, 97.6 µM; under `NCc1cccc(NC(=O)c2cc(Cl)cc(N3CCCC3)c2)c1`, 12 µM.
Under `O=C(Nc1cc(Cl)cc(C(=O)NCC2(CO)CCNCC2)c1)OCc1ccccc1` stands greater than 99.5 µM.
`O=C(Nc1cc(Cl)cc(C(=O)Nc2ccc3c(c2)[C@H]2CC[C@H]3N2)c1)OCc1ccccc1` returned an IC50 of 23.9 µM.
Compound `NCc1cccc(NC(=O)[C@@H](NC(=O)OCc2ccccc2)c2ccc(OCC3CCOCC3)cc2)c1` showed a half-inhibitory concentration (IC50) of 95.5 µM.
Under `NCc1cccc(NC(=O)c2cc(Cl)ccc2-n2cncn2)c1` stands 17.7 µM; under `Cn1nnc(S(=O)(=O)N2CCC([C@H](NC(=O)OCc3ccccc3)C(=O)Nc3cccc(CN)c3)CC2)n1`, greater than 99.5 µM.
Under `NCc1cccc(NC(=O)[C@H](NC(=O)OCc2ccccc2)C2CCN(S(=O)(=O)c3ccccc3)CC2)c1` stands greater than 99.5 µM; under `Cc1nnc(CN2CCC([C@H](NC(=O)OCc3ccccc3)C(=O)Nc3cccc(CN)c3)CC2)s1`, greater than 99.5 µM; under `COCc1cc(Cl)cc(C(=O)Nc2cccc(CN)c2)c1`, 26.9 µM.
Under `Cn1nc(CCN)nc1NC(=O)c1cc(Cl)cc(NC(=O)OCc2ccccc2)c1` stands 31.3 µM; under `C[C@H](N)c1cccc(NC(=O)c2cc(Cl)cc(NC(=O)OCc3ccccc3)c2)c1`, 13.7 µM; under `NCc1cccc(NC(=O)[C@H](NC(=O)OCc2ccccc2)c2ccc(OCc3ccncn3)cc2)c1`, 83 µM.
`Cn1ccnc1COc1cccc([C@H](NC(=O)OCc2ccccc2)C(=O)Nc2cccc(CN)c2)c1` displayed an IC50 greater than 99.5 µM.
Under `Cc1nnc(S(=O)(=O)N2CCC([C@H](NC(=O)OCc3ccccc3)C(=O)Nc3cccc(CN)c3)CC2)s1` stands greater than 99.5 µM; under `CN1CCC(COc2cccc([C@H](NC(=O)OCc3ccccc3)C(=O)Nc3cccc(CN)c3)c2)CC1`, 87.6 µM.
`NCc1cccc(NC(=O)c2cc(Cl)cc3c2OCCNC3)c1` registered a half-inhibitory concentration (IC50) of 45.2 µM.
In turn, `Oc1cc(N2CCN(Cc3c[nH]c4ccccc34)CC2)ccn1` gave a half-maximal inhibitory concentration (IC50) greater than 99.5 µM.
Under `O=C(Nc1cc(Cl)cc(C(=O)Nc2cccc3c2CNC3)c1)OCc1ccccc1` stands 75.6 µM.
Compound `CN(C)Cc1csc(NC(=O)c2cc(Cl)cc(NC(=O)OCc3ccccc3)c2)n1` had a 50% inhibitory concentration (IC50) greater than 99.5 µM.
Under `NCc1cccc(NC(=O)c2nc(=O)cc(NC(=O)OCc3ccccc3)[nH]2)c1` stands greater than 99.5 µM; under `NCc1cccc(NC(=O)[C@H](NC(=O)OCc2ccccc2)c2ccc(OCCc3cscn3)cc2)c1`, 79.5 µM; under `CN(C)Cc1cc(NC(=O)[C@H](NC(=O)OCc2ccccc2)c2ccc(OCc3ccccc3)cc2)sn1`, greater than 99.5 µM.
The figure for `NCc1ccccc1Oc1ccc(S(=O)(=O)Nc2ccc(Cl)cc2C(=O)NCC(F)(F)F)cc1` is greater than 99.5 µM; for `Cn1ccnc1C(=O)N1CCC([C@H](NC(=O)OCc2ccccc2)C(=O)Nc2cccc(CN)c2)CC1` it is greater than 99.5 µM.
The figure for `O=C(Nc1cc(Cl)cc(C(=O)Nc2nccn2C2CNC2)c1)OCc1ccccc1` is greater than 99.5 µM; for `CCCCS(=O)(=O)N1CCC([C@H](NC(=O)OCc2ccccc2)C(=O)Nc2cccc(CN)c2)CC1` it is greater than 99.5 µM.
For `CSc1cc(Cl)cc(C(=O)Nc2cccc(CN)c2)c1`, the half-maximal inhibitory concentration (IC50) stood at 10.4 µM.
On to `NCc1cccc(NC(=O)c2cc(Cl)ccc2OCC(F)(F)F)c1`, for which the IC50 was 55.5 µM.
The figure for `NCc1cccc(NC(=O)[C@H](NC(=O)OCc2ccccc2)c2cccc(OCCn3cccn3)c2)c1` is greater than 99.5 µM.

A word on the IC50: it is the point on the concentration scale where inhibition reaches its midpoint.

These data come from ChEMBL document CHEMBL5604062, “ASAP - ZIKV NS2B-NS3 protease fluorescence dose response” (2024).
